From PubChem BioAssay (NCI)
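All cell lines were grown in 96-well plates and treated with compound for 48 hours. GI50 is the concentration that inhibits growth by half. TGI is the concentration that stops growth completely.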

Assays:
Test in all cases: NCI tumour cell line growth inhibition, 48 h
[1] = test system: 786-0 renal
[2] = test system: A498 renal
[3] = test system: A549 NSCLC
[4] = test system: ACHN renal
[5] = test system: BT-549 breast
[6] = test system: CAKI-1 renal
[7] = test system: CCRF-CEM leukemia
[8] = test system: COLO 205 colon
[9] = test system: DU-145 prostate
[10] = test system: EKVX NSCLC
[11] = test system: HCC-2998 colon
[12] = test system: HCT-116 colon
[13] = test system: HCT-15 colon
[14] = test system: HL-60(TB) leukemia
[15] = test system: HOP-62 NSCLC
[16] = test system: HOP-92 NSCLC
[17] = test system: HS 578T breast
[18] = test system: HT29 colon
[19] = test system: IGROV1 ovarian
[20] = test system: K-562 leukemia
[21] = test system: KM12 colon
[22] = test system: LOX IMVI melanoma
[23] = test system: M14 melanoma
[24] = test system: MALME-3M melanoma
[25] = test system: MCF7 breast
[26] = test system: MDA-MB-231 breast
[27] = test system: MDA-MB-468 breast
[28] = test system: MOLT-4 leukemia
[29] = test system: NCI-H226 lung
[30] = test system: NCI-H23 lung
[31] = test system: NCI-H460 lung
[32] = test system: NCI-H522 lung
[33] = test system: OVCAR-3 ovarian
[34] = test system: OVCAR-4 ovarian
[35] = test system: OVCAR-5 ovarian
[36] = test system: OVCAR-8 ovarian
[37] = test system: PC-3 prostate
[38] = test system: RPMI-8226 leukemia
[39] = test system: RXF 393 renal
[40] = test system: SF-268 CNS
[41] = test system: SF-295 CNS
[42] = test system: SF-539 CNS
[43] = test system: SK-MEL-2 melanoma
[44] = test system: SK-MEL-28 melanoma
[45] = test system: SK-MEL-5 melanoma
[46] = test system: SK-OV-3 ovarian
[47] = test system: SN12C renal
[48] = test system: SNB-19 CNS
[49] = test system: SR leukemia
[50] = test system: SW-620 colon
[51] = test system: T-47D breast
[52] = test system: TK-10 renal
[53] = test system: U251 CNS
[54] = test system: UACC-257 melanoma
[55] = test system: UACC-62 melanoma
[56] = test system: UO-31 renal
[57] = test system: MDA-MB-435

## COc1ccccc1Nc1nnc(-c2c[nH]c3ccccc23)o1
[1]
  GI50: 5.07 µM
  TGI: 22.7 µM
[2]
  GI50: 17.8 µM
  TGI: 53.9 µM
[3]
  GI50: 2.99 µM
  TGI: > 100 µM
[4]
  GI50: 5.4 µM
  TGI: 45.7 µM
[5]
  GI50: 3.07 µM
  TGI: 26 µM
[6]
  GI50: 0.861 µM
  TGI: 80 µM
[7]
  GI50: 0.708 µM
  TGI: 21 µM
[8]
  GI50: 1.01 µM
  TGI: 11.2 µM
[9]
  GI50: 4.26 µM
  TGI: > 100 µM
[10]
  GI50: 2.63 µM
  TGI: > 100 µM
[11]
  GI50: 2.55 µM
  TGI: 16.2 µM
[12]
  GI50: 5.38 µM
  TGI: 54 µM
[13]
  GI50: 0.451 µM
  TGI: 21.8 µM
[14]
  GI50: 0.625 µM
  TGI: 10.2 µM
[15]
  GI50: 3.11 µM
  TGI: 40 µM
[16]
  GI50: 4.55 µM
  TGI: 40.6 µM
[17]
  GI50: 2.2 µM
  TGI: 15.6 µM
[18]
  GI50: 0.634 µM
  TGI: 14.6 µM
[19]
  GI50: 0.682 µM
  TGI: 37.9 µM
[20]
  GI50: 0.343 µM
  TGI: 79.3 µM
[21]
  GI50: 2.33 µM
  TGI: 16.5 µM
[22]
  GI50: 2.21 µM
  TGI: 18.2 µM
[23]
  GI50: 0.982 µM
  TGI: 22.7 µM
[24]
  GI50: 0.816 µM
  TGI: 15 µM
[25]
  GI50: 0.614 µM
  TGI: 17.5 µM
[26]
  GI50: 2.91 µM
  TGI: 24.6 µM
[27]
  GI50: 0.644 µM
  TGI: 3.37 µM
[28]
  GI50: 0.716 µM
  TGI: 14.4 µM
[29]
  GI50: 4.69 µM
  TGI: > 100 µM
[30]
  GI50: 1.89 µM
  TGI: 16.6 µM
[31]
  GI50: 1.66 µM
  TGI: 12.8 µM
[32]
  GI50: 0.476 µM
  TGI: 3.68 µM
[33]
  GI50: 1.59 µM
  TGI: 9.55 µM
[34]
  GI50: 7.54 µM
  TGI: > 100 µM
[35]
  GI50: 4.99 µM
  TGI: 32.2 µM
[36]
  GI50: 2.87 µM
  TGI: 26.2 µM
[37]
  GI50: 2.86 µM
  TGI: > 100 µM
[38]
  GI50: 2.25 µM
  TGI: 16.9 µM
[39]
  GI50: 2.09 µM
  TGI: 8.14 µM
[40]
  GI50: 3.77 µM
  TGI: > 100 µM
[41]
  GI50: 0.857 µM
  TGI: 5.69 µM
[42]
  GI50: 1.63 µM
  TGI: 4.76 µM
[43]
  GI50: 0.82 µM
  TGI: 2.82 µM
[44]
  GI50: 4.48 µM
  TGI: 24 µM
[45]
  GI50: 2.02 µM
  TGI: 5.81 µM
[46]
  GI50: 1.93 µM
  TGI: 25.4 µM
[47]
  GI50: 3.01 µM
  TGI: 16.4 µM
[48]
  GI50: 3.14 µM
  TGI: > 100 µM
[49]
  GI50: 0.395 µM
  TGI: 46.4 µM
[50]
  GI50: 0.598 µM
  TGI: > 100 µM
[51]
  GI50: 2.87 µM
  TGI: 25 µM
[52]
  GI50: 7.28 µM
  TGI: > 100 µM
[53]
  GI50: 2.43 µM
  TGI: 16.4 µM
[54]
  GI50: 4.95 µM
  TGI: 32.4 µM
[55]
  GI50: 1.39 µM
  TGI: 14.5 µM
[56]
  GI50: 3.65 µM
  TGI: 55 µM

## Cn1cc(-c2cc(N)n3nc(-c4c[nH]c5ccc(F)cc45)cc3n2)c2cc(Br)cnc21
[1]
  GI50: 8.47 µM
  TGI: 22.2 µM
[2]
  GI50: > 100 µM
  TGI: > 100 µM
[3]
  GI50: 16.4 µM
  TGI: > 100 µM
[4]
  GI50: 6.52 µM
  TGI: 43.4 µM
[5]
  GI50: > 100 µM
  TGI: > 100 µM
[6]
  GI50: 6.43 µM
  TGI: > 100 µM
[7]
  GI50: 3.45 µM
  TGI: 20.2 µM
[8]
  GI50: 55.5 µM
  TGI: > 100 µM
[9]
  GI50: 80.8 µM
  TGI: > 100 µM
[10]
  GI50: > 100 µM
  TGI: > 100 µM
[11]
  GI50: 4.2 µM
  TGI: 20.3 µM
[12]
  GI50: 32.2 µM
  TGI: > 100 µM
[13]
  GI50: 2.55 µM
  TGI: 10.7 µM
[14]
  GI50: 9.35 µM
  TGI: > 100 µM
[15]
  GI50: 62.2 µM
  TGI: > 100 µM
[16]
  GI50: 20.4 µM
  TGI: > 100 µM
[17]
  GI50: > 100 µM
  TGI: > 100 µM
[18]
  GI50: 5.04 µM
  TGI: 24.4 µM
[19]
  GI50: 14.3 µM
  TGI: > 100 µM
[20]
  GI50: 4.09 µM
  TGI: 50.2 µM
[21]
  GI50: 4 µM
  TGI: > 100 µM
[22]
  GI50: 1.96 µM
  TGI: 3.69 µM
[23]
  GI50: 12.3 µM
  TGI: 27.4 µM
[24]
  GI50: 10.4 µM
  TGI: 29.7 µM
[25]
  GI50: 4.11 µM
  TGI: 22.7 µM
[26]
  GI50: 5.28 µM
  TGI: 24.5 µM
[57]
  GI50: 21.6 µM
  TGI: > 100 µM
[27]
  GI50: 4.64 µM
  TGI: 18.5 µM
[28]
  GI50: 2.42 µM
  TGI: 21.6 µM
[29]
  GI50: 24.3 µM
  TGI: > 100 µM
[30]
  GI50: 75.3 µM
  TGI: > 100 µM
[31]
  GI50: 6.63 µM
  TGI: 24.8 µM
[32]
  GI50: 5.77 µM
  TGI: 40.4 µM
[33]
  GI50: > 100 µM
  TGI: > 100 µM
[34]
  GI50: 22.5 µM
  TGI: > 100 µM
[35]
  GI50: 21.9 µM
  TGI: > 100 µM
[36]
  GI50: 16.8 µM
  TGI: 69.6 µM
[37]
  GI50: 11.4 µM
  TGI: > 100 µM
[38]
  GI50: 5.67 µM
  TGI: 48.5 µM
[39]
  GI50: 2.63 µM
  TGI: 8.47 µM
[40]
  GI50: > 100 µM
  TGI: > 100 µM
[41]
  GI50: 9.9 µM
  TGI: 39.1 µM
[42]
  GI50: 13.7 µM
  TGI: 41.2 µM
[43]
  GI50: 26.4 µM
  TGI: > 100 µM
[44]
  GI50: 14.5 µM
  TGI: 30.2 µM
[45]
  GI50: 31.3 µM
  TGI: > 100 µM
[46]
  GI50: > 100 µM
  TGI: > 100 µM
[47]
  GI50: > 100 µM
  TGI: > 100 µM
[48]
  GI50: 37.7 µM
  TGI: > 100 µM
[49]
  GI50: 4.36 µM
  TGI: > 100 µM
[50]
  GI50: 6.93 µM
  TGI: 21.9 µM
[51]
  GI50: 34 µM
  TGI: > 100 µM
[52]
  GI50: 26.5 µM
  TGI: > 100 µM
[53]
  GI50: 5.72 µM
  TGI: 28.9 µM
[54]
  GI50: 23.3 µM
  TGI: > 100 µM
[55]
  GI50: 17.7 µM
  TGI: 72.3 µM
[56]
  GI50: 12.8 µM
  TGI: 64.8 µM
